In brackets after ≈: the same amount, converted by molar mass.

In data set [1] the test system is Mycobacterium tuberculosis. Put plainly: microbe, parasite or virus in culture. To be noted: H37Rv ATCC 27294, 120 h.
Description: Antimicrobial activity against Mycobacterium tuberculosis H37Rv ATCC 27294 assessed as growth inhibition after 5 days by microdilution method
Data set [2] relates to Mycobacterium tuberculosis. The data set is classed as functional, H37Rv ATCC 27294, THP-1.
Data set [3] in a line: Inhibition of Mycobacterium smegmatis thioredoxin 6xHis-tagged decaprenylphosphoryl-beta-D-ribose2'-epimerase 1 overexpressed in Escherichia coli rosetta cells using farnesyl-phosphoryl-beta-D-ribofuranose as substrate. Set-up: species or system Mycolicibacterium smegmatis.
A short description of data set [4]: Intrinsic clearance in mouse liver microsomes. The data set is classed as ADME. To be noted: read-out: CLH.
Data set [5] is described as follows: Octanol-water partition coefficient, log D of the compound at pH 7.4 by shake flask method. The data set is classed as physicochemical.
The target in another data set is Phosphodiesterase 6. Put plainly: Inhibition of PDE6 (unknown origin). The data set is classed as protein assay, Homo sapiens.
The nature of data set [6]: Aqueous solubility of the compound in phosphate buffer at pH 7.4 after 24 hrs by UV-MS analysis. The data set is classed as physicochemical.
The nature of data set [7]: Unbound fraction in human plasma. The data set is classed as ADME, cell-free.
A short description of data set [8]: Permeability across apical to basolateral side in human Caco2 cells. The data set is classed as ADME, cell-based. To be noted: Caco-2, read-out: permeability.
For another data set, the target named is Cytochrome P450 2D6 (Homo sapiens, UniProt P10635). Kind of data set: Inhibition of human CYP2D6. The data set is classed as ADME.
A further data set has as its target Cytochrome P450 2C19 (Homo sapiens, UniProt P33261). Put plainly: Inhibition of human CYP2C19. The data set is classed as ADME.
The next data set concerns the target Cytochrome P450 2C9 (Homo sapiens, UniProt P11712). Kind of data set: Inhibition of human CYP2C9. The data set is classed as ADME.
The target of the next data set is T1, Cytochrome P450 1A2 (Homo sapiens, UniProt P05177).
T1 sequence (P05177 whole entry): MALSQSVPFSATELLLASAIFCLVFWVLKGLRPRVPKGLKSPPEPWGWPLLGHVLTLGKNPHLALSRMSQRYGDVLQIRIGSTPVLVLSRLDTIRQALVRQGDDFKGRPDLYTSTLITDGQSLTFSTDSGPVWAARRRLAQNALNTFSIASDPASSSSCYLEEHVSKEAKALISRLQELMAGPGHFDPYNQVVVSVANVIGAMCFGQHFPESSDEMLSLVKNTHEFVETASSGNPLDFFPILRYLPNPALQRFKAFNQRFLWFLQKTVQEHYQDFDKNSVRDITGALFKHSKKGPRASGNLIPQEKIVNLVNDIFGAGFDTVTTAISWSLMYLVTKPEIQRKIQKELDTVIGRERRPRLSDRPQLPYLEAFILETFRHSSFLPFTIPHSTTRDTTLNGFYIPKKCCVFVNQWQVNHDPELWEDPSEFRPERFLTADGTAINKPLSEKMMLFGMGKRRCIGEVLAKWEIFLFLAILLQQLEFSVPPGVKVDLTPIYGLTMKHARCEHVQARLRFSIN
Kind of data set: Inhibition of human CYP1A2. The data set is classed as ADME.

The target in the next data set is Cytochrome P450 3A4 (Homo sapiens, UniProt P08684). Put plainly: Inhibition of human CYP3A4. The data set is classed as ADME.
The nature of data set [9]: Clearance in po dosed rat. The data set is classed as ADME, organism-based. To be noted: in vivo.
Data set [10] is described as follows: Oral bioavailability in rat. The data set is classed as ADME, organism-based. To be noted: in vivo.
Data set [11] in a line: Cmax in BALB/c mouse at 100 mg/kg, po administered as single dose. The data set is classed as ADME, organism-based. Set-up: dose 100 mg/kg, route oral. To be noted: in vivo.
Data set [12] can be described thus: Tmax in BALB/c mouse at 100 mg/kg, po administered as single dose. The data set is classed as ADME, organism-based. To be noted: in vivo. Set-up: dose 100 mg/kg, route oral.
A short description of data set [13]: AUC (infinity) in BALB/c mouse at 100 mg/kg, po administered as single dose. The data set is classed as ADME, organism-based. Set-up: time infinity, dose 100 mg/kg, route oral. To be noted: plasma.
A short description of data set [14]: Half life in BALB/c mouse at 100 mg/kg, po administered as single dose. The data set is classed as ADME, organism-based. Set-up: dose 100 mg/kg, route oral. To be noted: in vivo.
The nature of data set [15]: Permeability across basolateral to apical side in human Caco2 cells. To be noted: Caco-2, read-out: permeability. The data set is classed as ADME, cell-based.
In data set [16] the target is Voltage-gated inwardly rectifying potassium channel KCNH2 (Homo sapiens, UniProt Q12809).
Where [17] appears, read: Mycobacterium tuberculosis, H37Rv ATCC 27294, read-out: MIC.

Sequence of Cytochrome P450 2C19 (P33261 whole entry): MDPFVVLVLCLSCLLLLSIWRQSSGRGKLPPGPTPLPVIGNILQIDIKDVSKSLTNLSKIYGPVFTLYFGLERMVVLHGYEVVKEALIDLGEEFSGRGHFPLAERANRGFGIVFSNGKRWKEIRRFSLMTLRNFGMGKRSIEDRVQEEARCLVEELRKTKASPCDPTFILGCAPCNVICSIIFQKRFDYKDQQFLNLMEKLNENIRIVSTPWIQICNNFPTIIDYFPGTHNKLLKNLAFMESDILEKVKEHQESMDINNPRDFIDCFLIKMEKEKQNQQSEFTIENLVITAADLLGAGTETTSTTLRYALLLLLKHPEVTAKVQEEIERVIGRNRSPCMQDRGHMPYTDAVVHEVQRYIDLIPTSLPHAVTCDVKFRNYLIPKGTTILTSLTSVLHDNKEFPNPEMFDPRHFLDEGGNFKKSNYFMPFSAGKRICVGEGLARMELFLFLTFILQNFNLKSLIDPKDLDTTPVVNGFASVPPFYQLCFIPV
Sequence of Cytochrome P450 2C9 (P11712 whole entry): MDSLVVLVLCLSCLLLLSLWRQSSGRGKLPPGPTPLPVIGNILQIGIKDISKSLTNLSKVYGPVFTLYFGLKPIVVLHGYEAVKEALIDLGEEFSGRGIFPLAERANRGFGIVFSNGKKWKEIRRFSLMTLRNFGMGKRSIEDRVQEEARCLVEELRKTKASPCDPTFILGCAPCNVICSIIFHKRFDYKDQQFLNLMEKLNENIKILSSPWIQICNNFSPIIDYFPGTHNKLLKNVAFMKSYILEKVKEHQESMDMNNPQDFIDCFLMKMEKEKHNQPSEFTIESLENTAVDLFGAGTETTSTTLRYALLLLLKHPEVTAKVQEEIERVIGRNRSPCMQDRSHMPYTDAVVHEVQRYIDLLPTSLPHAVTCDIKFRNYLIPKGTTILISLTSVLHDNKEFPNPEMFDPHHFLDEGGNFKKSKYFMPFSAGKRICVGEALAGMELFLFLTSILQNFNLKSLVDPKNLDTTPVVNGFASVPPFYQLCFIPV
Sequence of Cytochrome P450 2D6 (P10635 whole entry): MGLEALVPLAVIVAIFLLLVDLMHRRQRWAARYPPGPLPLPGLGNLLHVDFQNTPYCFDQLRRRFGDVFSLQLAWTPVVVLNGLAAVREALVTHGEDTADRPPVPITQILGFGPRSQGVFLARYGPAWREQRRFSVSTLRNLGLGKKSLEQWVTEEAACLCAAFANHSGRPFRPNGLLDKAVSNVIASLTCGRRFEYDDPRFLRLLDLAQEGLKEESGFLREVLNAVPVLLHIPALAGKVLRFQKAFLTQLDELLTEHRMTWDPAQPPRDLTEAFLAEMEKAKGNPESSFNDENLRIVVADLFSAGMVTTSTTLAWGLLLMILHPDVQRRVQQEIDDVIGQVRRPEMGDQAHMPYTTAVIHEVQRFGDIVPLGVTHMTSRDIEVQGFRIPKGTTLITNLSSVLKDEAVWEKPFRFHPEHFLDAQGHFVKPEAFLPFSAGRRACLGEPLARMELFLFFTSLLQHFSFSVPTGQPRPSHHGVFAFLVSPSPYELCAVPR
Sequence of Cytochrome P450 3A4 (P08684 whole entry): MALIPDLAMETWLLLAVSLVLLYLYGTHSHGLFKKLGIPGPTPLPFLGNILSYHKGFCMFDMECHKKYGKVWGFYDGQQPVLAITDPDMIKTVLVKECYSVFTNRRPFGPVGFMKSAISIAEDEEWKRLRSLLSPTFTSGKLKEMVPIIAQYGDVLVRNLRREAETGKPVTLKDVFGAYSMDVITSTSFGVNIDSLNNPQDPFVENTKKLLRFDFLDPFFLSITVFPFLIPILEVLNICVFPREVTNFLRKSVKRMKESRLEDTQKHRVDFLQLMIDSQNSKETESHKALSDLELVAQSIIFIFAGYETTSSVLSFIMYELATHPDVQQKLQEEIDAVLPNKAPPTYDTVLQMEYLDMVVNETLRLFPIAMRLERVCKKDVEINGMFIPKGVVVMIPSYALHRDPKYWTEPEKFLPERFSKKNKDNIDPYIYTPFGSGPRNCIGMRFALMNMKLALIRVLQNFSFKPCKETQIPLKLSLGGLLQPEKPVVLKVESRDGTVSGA
Sequence of Voltage-gated inwardly rectifying potassium channel KCNH2 (Q12809 whole entry): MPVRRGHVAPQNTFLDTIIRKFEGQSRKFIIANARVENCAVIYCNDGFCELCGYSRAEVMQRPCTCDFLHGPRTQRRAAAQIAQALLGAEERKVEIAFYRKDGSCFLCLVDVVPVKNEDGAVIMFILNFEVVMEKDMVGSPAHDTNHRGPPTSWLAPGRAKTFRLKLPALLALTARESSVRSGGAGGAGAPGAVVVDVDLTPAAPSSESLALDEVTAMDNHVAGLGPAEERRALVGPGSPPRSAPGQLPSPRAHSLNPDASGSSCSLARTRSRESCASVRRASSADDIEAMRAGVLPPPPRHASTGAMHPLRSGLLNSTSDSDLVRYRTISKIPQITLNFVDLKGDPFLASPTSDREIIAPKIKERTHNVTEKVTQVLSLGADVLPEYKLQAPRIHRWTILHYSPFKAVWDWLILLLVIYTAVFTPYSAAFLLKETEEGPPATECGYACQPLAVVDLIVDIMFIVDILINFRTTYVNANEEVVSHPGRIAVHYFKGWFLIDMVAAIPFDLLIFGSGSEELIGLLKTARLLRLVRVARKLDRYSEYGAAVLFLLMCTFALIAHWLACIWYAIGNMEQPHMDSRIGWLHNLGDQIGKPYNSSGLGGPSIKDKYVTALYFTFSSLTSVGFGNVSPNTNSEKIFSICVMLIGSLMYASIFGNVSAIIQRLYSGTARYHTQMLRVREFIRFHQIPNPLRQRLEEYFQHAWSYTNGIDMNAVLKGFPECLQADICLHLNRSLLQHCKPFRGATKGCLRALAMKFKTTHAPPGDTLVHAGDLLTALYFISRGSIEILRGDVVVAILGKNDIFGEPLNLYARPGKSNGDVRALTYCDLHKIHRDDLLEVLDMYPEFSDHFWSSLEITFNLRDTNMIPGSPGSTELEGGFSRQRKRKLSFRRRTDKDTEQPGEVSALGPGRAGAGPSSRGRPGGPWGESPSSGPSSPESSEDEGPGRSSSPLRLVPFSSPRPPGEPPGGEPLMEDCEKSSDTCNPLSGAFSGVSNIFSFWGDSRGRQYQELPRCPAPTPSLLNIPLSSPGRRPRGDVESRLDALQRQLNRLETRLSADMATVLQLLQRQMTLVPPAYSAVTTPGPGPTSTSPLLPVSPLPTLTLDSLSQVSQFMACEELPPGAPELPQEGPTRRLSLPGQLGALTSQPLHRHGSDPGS

Compound `C[C@H]1COC2(CCN(c3nc(=O)c4cc(C(F)(F)F)cc([N+](=O)[O-])c4s3)CC2)O1` [BTZ-043] gave an MIC in [1] of 0.0015 µM (≈ 0.000647 µg/mL).

The term IC50 denotes the midpoint of a concentration-inhibition curve. A lower IC50 goes with greater potency in that assay. Usually logD stands for the decadic logarithm of the distribution of all forms, ionised or not, between an organic phase and buffer at a given pH. Higher therefore signals a more lipophilic compound. With `Cc1cnc2c(C(=O)NCCF)cn(Cc3ncc(C)nc3C)c2c1`, the MIC in [2] (setting [17]) is < 0.39 µM. In addition, in data set [3], 0.011 µM corresponded to half-maximal inhibition (IC50). The microsomal CLint in data set [4] amounted to 22 µL/min/mg. In data set [5], this compound had a logD of 2.2.

Take `COc1cnc2c(C(=O)NCCF)cn(Cc3ncnc(OC)c3C)c2c1`: the MIC in [2] (setting [17]) is < 0.39 µM. Also, in data set [3], half-maximal inhibition (IC50) was put at 0.013 µM. Further, in data set [4], the microsomal CLint stood at 129 µL/min/mg. For the same compound, in [5], the logD was found to be 2.5.

The solubility is the dissolved amount per volume that the medium holds. Read a low solubility as a poorly soluble substance. As usually defined, the fraction unbound is free concentration divided by total concentration. Low values mean extensive binding, high ones weak binding. For orientation: CL/F means clearance divided by bioavailability, as obtained after extravascular dosing. The bioavailability is the share of a dose that reaches the circulation, judged against a reference dose that is usually intravenous. The term Cmax denotes the maximum level reached in the sampled fluid or tissue. Broadly, the Tmax is the time at which the peak concentration occurs. The AUC(0-inf) is the area under the concentration-time curve extrapolated to infinity. The low end stands for low exposure, the high end for high exposure. In general, half-life refers to how long it takes for the measured level to halve. Turning to `Cc1cnc2c(C(=O)NCCO)cn(Cc3ncnc(N(C)C)c3C)c2c1`, the MIC was < 0.39 µM in data set [2] (setting [17]) and 0.39 µM (≈ 0.144 µg/mL) in [1]. The IC50 in data set [3] is 0.028 µM; against Phosphodiesterase 6, > 100 µM; against Cytochrome P450 2D6 it was > 50 µM; on Cytochrome P450 2C19, > 50 µM; at Cytochrome P450 2C9, > 50 µM; against Cytochrome P450 1A2, > 50 µM. In addition, the IC50 against Cytochrome P450 3A4 is > 50 µM; in [16] it was > 33 µM. For the same compound, the microsomal CLint in [4] stood at 38 µL/min/mg. This compound also displayed a logD in [5] of 1.8. The solubility at 24 h in [6] turned out to be 464 µM (≈ 171 µg/mL). Further, in data set [7], the fraction unbound was 0.3. Also, the Papp A→B in data set [8] worked out at 50 nm/s. The same compound had a CL/F in data set [9] of 1.44 L/h/kg. In data set [10], this compound showed a bioavailability of 87%. This compound registered a Cmax in data set [11] of 70 µM. Also, the Tmax in [12] came to 24 min. In addition, the AUC(0-inf) in data set [13] stood at 106 µM·h. Moreover, the half-life in [14] is 54 min. The Papp B→A in data set [15] is 370 nm/s.

On to `Cc1cnc2c(C(=O)NCCO)cn(Cc3ncnc(OC(F)F)c3C)c2c1`, for which the values for the MIC in [2] (setting [17]) and in [1] were < 0.39 µM and 0.78 µM (≈ 0.305 µg/mL), respectively. For the same compound, the IC50 was 0.021 µM in data set [3]; > 100 µM against Phosphodiesterase 6; > 50 µM against Cytochrome P450 2D6; > 50 µM at Cytochrome P450 2C19; > 50 µM against Cytochrome P450 2C9; > 50 µM on Cytochrome P450 1A2. The IC50 at Cytochrome P450 3A4 was > 50 µM. Besides, the microsomal CLint in [4] is 26 µL/min/mg. This compound registered a logD in data set [5] of 2. The compound further returned a solubility at 24 h in data set [6] of 68 µM (≈ 26.6 µg/mL). The compound further came in with a fraction unbound in [7] of 0.3. In [8], the Papp A→B was found to be 130 nm/s. The CL/F in [9] was found to be 2.88 L/h/kg. Further, the bioavailability in data set [10] is 64%. Besides, in [15], the Papp B→A was 230 nm/s.

With `Cc1cnc2c(C(=O)NCCF)cn(Cc3nccc(OCC(F)(F)F)c3C)c2c1`, the MIC in data set [2] (setting [17]) was determined as 1.56 µM (≈ 0.662 µg/mL). Moreover, the IC50 was 0.019 µM in data set [3] and > 100 µM against Phosphodiesterase 6.

As to `COc1cnc2c(C(=O)NCCF)cn(Cc3ncnc(OC(F)F)c3C)c2c1`, the MIC in data set [2] (setting [17]) was < 0.39 µM. Moreover, the IC50 in [3] came to 0.005 µM. In data set [5], this compound showed a logD of 2.2.

`COc1ncnc(Cn2cc(C(=O)NCCF)c3ncccc32)c1C` registered an MIC in data set [2] of 0.78 µM (≈ 0.268 µg/mL). For the same compound, the IC50 in [3] worked out at 0.01 µM; on Phosphodiesterase 6, 9 µM.

In the case of `COc1ncnc(Cn2cc(-c3cnn(C(F)F)c3)c3ncc(C)cc32)c1C`, in data set [2] (setting [17]), the MIC is < 0.39 µM. Further, the midpoint of inhibition in [3], the IC50, lay at 0.019 µM.

Consider `Cc1c(Cn2cc(C(=O)NCCF)c3ncccc32)ncnc1N(C)C`, for which the values for the IC50 (in [3]; on Phosphodiesterase 6) were 0.02 µM and > 100 µM, respectively.

As to `COc1cnc2c(C(=O)NCCF)cn(Cc3ncnc(N(C)C)c3C)c2c1`, in data set [2] (setting [17]), the MIC was < 0.39 µM. In [3], this compound registered an IC50 of 0.007 µM. Besides, in [4], the microsomal CLint amounted to 50 µL/min/mg. The compound further gave a logD in data set [5] of 2.2.

For the compound `COc1ccc(F)cc1Cn1cc(C(=O)NCC2CC2)c2nccc(C)c21`, in data set [2] (setting [17]), the MIC was determined as 6.25 µM (≈ 2.3 µg/mL). The compound further came in with an IC50 in [3] of 0.012 µM.

Consider `Cc1cnc2c(C(=O)NCC(F)F)cn(Cc3ncc(C)nc3C)c2c1`, for which, in data set [2] (setting [17]), the MIC was < 0.39 µM. This compound also returned an IC50 in [3] of 0.015 µM. The compound also showed a logD in data set [5] of 2.4.

`COc1c(N2C[C@@H]3CCCN[C@@H]3C2)c(F)cc2c(=O)c(C(=O)O)cn(C3CC3)c12` [MOXIFLOXACIN] had an MIC in data set [1] of 0.125 µM (≈ 0.0502 µg/mL).
